In series [1] the test system is influenza virus A/Taiwan/1/86 (H1N1). The experiment in a line: organism not typed. The series is classed as cell-based. The note with it: MDCK, 72 h, CPE in MDCK cells, three days post-virus exposure, ATPlite. For orientation: ATP-based viability assays read luminescence as a measure of living cells.
Another series in a line: in vitro. To be noted: dog, TOX MDCK CC50.

Structures are written as SMILES.

The IC50 is the concentration that gives 50% inhibition. As usually defined, the melting point is the temperature of the solid-liquid transition. The CC50 is the concentration giving 50% cytotoxicity. Low values mean harm at low concentration, high ones better tolerance by the cells.

`Cc1[nH]nnc1C(=O)N[C@@H]1CCC[C@H](Nc2nc(-c3c[nH]c4c(F)cc(F)cc34)ncc2F)C1` [Compound 141] returned a melting point of 256.6 °C. The same compound gave an IC50 in series [1] of 0.002 µM. This compound also showed a CC50 at 3 days in “in vitro” of 8.4 µM.

With `O=C(N[C@@H]1CCC[C@H](Nc2nc(-c3c[nH]c4c(F)cc(F)cc34)ncc2F)C1)c1c[nH]cn1` [Compound 142], the melting point stood at 219.9 °C. The IC50 in series [1] amounted to 0.002 µM. Moreover, in the series “in vitro”, the CC50 at 3 days is 10 µM.

Regarding `Cn1cnnc1C(=O)N[C@@H]1CCC[C@H](Nc2nc(-c3c[nH]c4c(F)cc(F)cc34)ncc2F)C1` [Compound 143], the melting point is 169.8 °C. Besides, in series [1], the IC50 was 0.039 µM. In the series “in vitro”, half-maximal cytotoxicity (CC50 at 3 days) was put at 9.9 µM.

Compound `Cc1cnc(C(=O)N[C@@H]2CCC[C@H](Nc3nc(-c4c[nH]c5c(F)cc(F)cc45)ncc3F)C2)n1C` [Compound 144] returned a melting point of 204.9 °C. In addition, in series [1], the midpoint of inhibition, the IC50, lay at 0.004 µM. Besides, it took 7.2 µM to reach half-maximal cytotoxicity in “in vitro” (CC50 at 3 days).

`Nc1nc(C(=O)N[C@@H]2CCC[C@H](Nc3nc(-c4c[nH]c5c(F)cc(F)cc45)ncc3F)C2)cs1` [Compound 145] showed a melting point of 178.1 °C. 0.002 µM corresponded to half-maximal inhibition in series [1] (IC50). Also, in the series “in vitro”, the CC50 at 3 days is 6.8 µM.

Consider `Nc1n[nH]cc1C(=O)N[C@@H]1CCC[C@H](Nc2nc(-c3c[nH]c4c(F)cc(F)cc34)ncc2F)C1` [Compound 146], for which the melting point stood at 169.7 °C. In series [1], this compound registered an IC50 of 0.001 µM. For the same compound, the CC50 at 3 days in “in vitro” amounted to 10.7 µM.

`O=C(O)c1n[nH]nc1C(=O)N[C@@H]1CCC[C@H](Nc2nc(-c3c[nH]c4c(F)cc(F)cc34)ncc2F)C1` [Compound 147] registered a melting point of more than 300 °C. For the same compound, the IC50 in series [1] is 0.047 µM. In “in vitro”, this compound returned a CC50 at 3 days of more than 25 µM.

In turn, `O=C(N[C@@H]1CCC[C@H](Nc2nc(-c3c[nH]c4c(F)cc(F)cc34)ncc2F)C1)[C@H]1CCCN1` [Compound 148] gave a melting point of 220.8 °C. In series [1], this compound displayed an IC50 of 0.6 µM. The compound also yielded a CC50 at 3 days in “in vitro” of 10.3 µM.

`Cn1nc(C(=O)N[C@@H]2CCC[C@H](Nc3nc(-c4c[nH]c5c(F)cc(F)cc45)ncc3F)C2)cc1N` [Compound 149] returned a melting point of 253.4 °C. In series [1], this compound had an IC50 of 0.002 µM. This compound gave a CC50 at 3 days in the series “in vitro” of 10 µM.

In turn, `Cc1sc(N)nc1C(=O)N[C@@H]1CCC[C@H](Nc2nc(-c3c[nH]c4c(F)cc(F)cc34)ncc2F)C1` [Compound 150] came in with a melting point of 248.4 °C. Moreover, in series [1], the IC50 worked out at 0.003 µM. Further, in “in vitro”, the CC50 at 3 days was found to be 4.8 µM.

`Cn1nnnc1C(=O)N[C@@H]1CCC[C@H](Nc2nc(-c3c[nH]c4c(F)cc(F)cc34)ncc2F)C1` [Compound 152] gave a melting point of 250.3 °C. For the same compound, in series [1], inhibition was half-maximal at 0.04 µM (IC50). Besides, the CC50 at 3 days in the series “in vitro” is more than 5 µM.

The compound `Cn1nnc(C(=O)N[C@@H]2CCC[C@H](Nc3nc(-c4c[nH]c5c(F)cc(F)cc45)ncc3F)C2)n1` [Compound 153] gave a melting point of 230 °C. This compound also came in with an IC50 in series [1] of 0.02 µM. This compound also showed a CC50 at 3 days in the series “in vitro” of more than 1 µM.

`O=C(N[C@@H]1CCC[C@H](Nc2nc(-c3c[nH]c4c(F)cc(F)cc34)ncc2F)C1)c1cscn1` [Compound 154]: the melting point was found to be 266.8 °C. The same compound showed an IC50 in series [1] of 0.002 µM. Further, the CC50 at 3 days in the series “in vitro” was determined as 15.9 µM.

In turn, `O=C(N[C@@H]1CCC[C@H](Nc2nc(-c3c[nH]c4c(F)cc(F)cc34)ncc2F)C1)c1csc(C(=O)O)n1` [Compound 155] came in with a melting point of 260.8 °C. This compound also showed an IC50 in series [1] of 0.003 µM. The compound further returned a CC50 at 3 days in “in vitro” of more than 22.8 µM.

With `Cn1ncc(C(=O)N[C@@H]2CCC[C@H](Nc3nc(-c4c[nH]c5c(F)cc(F)cc45)ncc3F)C2)c1N` [Compound 156], the melting point came out at 248.7 °C. In series [1], inhibition was half-maximal at 0.0008 µM (IC50). Besides, it took 8.5 µM to reach half-maximal cytotoxicity in “in vitro” (CC50 at 3 days).

`COc1ccnc(C(=O)N[C@@H]2CCC[C@H](Nc3nc(-c4c[nH]c5c(F)cc(F)cc45)c(C#N)cc3F)C2)c1` [Compound 161] came in with a melting point of 285.5 °C. For the same compound, in series [1], half-maximal inhibition (IC50) required 0.003 µM. The compound also had a CC50 at 3 days in “in vitro” of more than 25 µM.

The compound `Cc1cc(F)c2[nH]cc(-c3ncc(F)c(N[C@H]4C5CCC(CC5)[C@@H]4C(=O)O)n3)c2c1` [Compound 166] gave a melting point of 98 °C. Besides, in series [1], the IC50 was 0.006 µM. Besides, the midpoint of cytotoxicity in “in vitro”, the CC50 at 3 days, lay at 1 µM.

In turn, `Cc1cc(F)c2[nH]cc(-c3ncc(F)c(N[C@H](CC(=O)O)C(C)(C)C)n3)c2c1` [Compound 168] gave a melting point of 132 °C. Further, the IC50 in series [1] was more than 25 µM. In the series “in vitro”, it took 10.3 µM to reach half-maximal cytotoxicity (CC50 at 3 days).

`Cc1cc(F)c2[nH]cc(-c3ncc(F)c(N[C@@H](CC(=O)O)C(C)(C)C)n3)c2c1` [Compound 169] displayed a melting point of 144 °C. In addition, in series [1], the IC50 was found to be 0.019 µM. In the series “in vitro”, this compound showed a 50% cytotoxic concentration (CC50) at 3 days of 2.3 µM.

Take `N#Cc1cc(F)c2[nH]cc(-c3ncc(F)c(N[C@H]4C5CCC(CC5)[C@@H]4C(=O)O)n3)c2c1` [Compound 171]: the melting point is 211.6 °C. The same compound showed an IC50 in series [1] of 0.006 µM. The compound also yielded a CC50 at 3 days in “in vitro” of 0.7 µM.

In turn, `N#Cc1cc(F)c2[nH]cc(-c3ncc(F)c(N[C@H]4CCC[C@@H](NC(=O)c5c[nH]nn5)C4)n3)c2c1` [Compound 172] showed a melting point of more than 300 °C. Moreover, the IC50 in series [1] was 0.002 µM. The CC50 at 3 days in the series “in vitro” is more than 25 µM.

As for `N#Cc1cc(F)c(N[C@@H]2CCC[C@@H](NC(=O)c3ccccn3)C2)nc1-c1c[nH]c2c(F)cc(F)cc12` [Compound 209], the melting point was determined as 257 °C. In series [1], this compound came in with an IC50 of 0.003 µM. In the series “in vitro”, this compound returned a CC50 at 3 days of more than 25 µM.

For the compound `N#Cc1cc(F)c(N[C@@H]2CCC[C@H](NC(=O)[C@@H](O)c3ccccc3)C2)nc1-c1c[nH]c2c(F)cc(F)cc12` [Compound 214], the melting point came to 255 °C. In addition, half-maximal inhibition in series [1] (IC50) required 0.67 µM. In “in vitro”, this compound registered a CC50 at 3 days of 2.9 µM.

As to `CC(C)(C)[C@H](CC(=O)O)Nc1nc(-c2c[nH]c3c(F)cc(F)cc23)c(C#N)cc1F` [Compound 218], the melting point was more than 280 °C. Moreover, the half-inhibitory concentration (IC50) in series [1] amounted to 0.003 µM. Also, half-maximal cytotoxicity in “in vitro” (CC50 at 3 days) was put at 0.24 µM.

`O=C(O)c1cccnc1C(=O)N[C@@H]1CCC[C@H](Nc2nc(-c3c[nH]c4c(F)cc(F)cc34)ncc2F)C1` [Compound 225]: the melting point is 265.2 °C. The compound also showed an IC50 in series [1] of 0.009 µM. This compound also yielded a CC50 at 3 days in “in vitro” of more than 5 µM.

Turning to `CC(C)(c1cccs1)C(CC(=O)O)Nc1nc(-c2c[nH]c3c(F)cc(F)cc23)c(C#N)cc1F` (stereo not drawn) [Compound 229, 3-((5-cyano-6-(5,7-difluoro-1H-indol-3-yl)-3-fluoropyridin-2-yl)amino)-4-methyl-4-(thiophen-2-yl)pentanoic Acid], the melting point came out at 235.7 °C. The compound further yielded an IC50 in series [1] of 0.018 µM. In the series “in vitro”, this compound showed a CC50 at 3 days of 0.2 µM.

`CC(C)(c1cccs1)[C@H](CC(=O)O)Nc1nc(-c2c[nH]c3c(F)cc(F)cc23)ncc1F` [Compound 231]: the melting point came to 271.1 °C. Inhibition in series [1] was half-maximal at 0.01 µM (IC50). The CC50 at 3 days in “in vitro” was found to be 2.6 µM.

In turn, `CC(C)(c1nccs1)C(CC(=O)O)Nc1nc(-c2c[nH]c3c(F)cc(F)cc23)c(C#N)cc1F` (stereo not drawn) [Compound 232] displayed a melting point of 223.6 °C. Moreover, the IC50 in series [1] was 0.003 µM. Moreover, the midpoint of cytotoxicity in the series “in vitro”, the CC50 at 3 days, lay at 0.3 µM.

(Values after patent US10597390B2, “Indoles for use in influenza virus infection” (Janssen Sciences Ireland UC, priority 2014, dated 2020).)
